According to patent US6685913B1, “Lipid soluble radioactive metal chelates for tumor therapy” (Thomas Jefferson University, priority 1999, dated 2004):
“Also recorded” adds a separate entry of the source.

Columns and labels:
[1] = Body weight, additional studies; type: in vivo, nude mice; settings: treatment period
Protocol: Human prostate and human breast tumors were grown in two separate groups of nude mice. Six mice in each group were divided in two subgroups of 3 mice each. Three mice were treated with intratumoral injections of either Indium-111-oxine or Indium-111-Merc. Each group of mice was then placed in rodent cages separately and cared for with regular diet and water ad lib. Each day the animals were weighed, and tumor diameter was measured three times with a Vernier caliper.

[2] = Retention of radioactivity after intratumoral injection, first study (gamma camera, ionization chamber); type: in vivo, athymic nude mice
[3] = test system: cells; settings: cited from earlier work
[4] = test system: human prostate cancer cells DU145; settings: one month
Protocol: Additional feasibility studies were performed using two lipid soluble agents, Indium-111-oxine and Indium-111-Mercaptopyridine-N-oxide (Merc). Human prostate and human breast tumors were grown in two separate groups of nude mice. Six mice in each group were divided in two subgroups of 3 mice each. Three mice were treated with intratumoral injections of either Indium-111-oxine or Indium-111-Merc. Each group of mice was then placed in rodent cages separately and cared for with regular diet and water ad lib. Each day the animals were weighed, and tumor diameter was measured three times with a Vernier caliper.
Radioactivity received by each animal was carefully measured, and each day the amount of radioactivity retained in the animal body was measured using an energy calibrated radiation dose calibrator. Two weeks after the first injection, a second dose of the same agent was readministered, also intratumorally and the procedure was followed as described above, for the next two weeks. […] Indium-111 associated with each tissue was counted, and the radioactivity distributed in each organ was calculated as the percent of the total radioactivity retrained in each animal. Histology on critical organs, such as the liver, bladder, and kidney, as well as tumor histology, was assessed in treated animals and in untreated control animals. […]

[5] = test system: human colorectal carcinoma cells LS174T; settings: single intratumoral injection, day 22, control tumor 3.2 cm
Protocol: Tumors were allowed to grow to approximately 0.5 cm in diameter.
On day one, two of the four tumor-bearing mice received a single intratumoral injection of approximately 100 μl Indium-111-oxine. Mice were placed in an ionization chamber, and radioactivity was recorded after the injection and then daily for 28 days. On each day, radioactivity was corrected for decay, and the percent of injected dose retained in the animal was calculated and recorded. Animals were also weighed daily in a calibrated balance.
On day one, all four mice were lightly anesthetized and photographs taken. Mice receiving Indium-111-oxine were also imaged with a gamma camera 28 days later. This qualitatively recorded the distribution of radioactivity, 28 days after it was injected.The control animals received a single intratumoral injection of 100 μl of 25% ethanol in 0.9% NaCl. Two radioactive animals and the control animals were then cared for in two separated cages and allowed to eat and drink at liberty.
On day 22, the two mice treated with Indium-111-oxine received 100 μl of Indium-111-Merc each in two places in tumors. The control animals also received two intratumoral injection of 0.05 M phosphate buffer pH−7.4.
As before, the mice were weighed daily and radioactivity remaining in their bodies was measured for an additional 10 days.

[6] = Distribution of radioactivity in tumor and organs at sacrifice; type: in vivo, nude mice
Description: (§1) These organs were then weighed.

[7] = test system: human breast cancer cells T47D; assay: Intratumoral injection study on T47D tumor-bearing nude mice: tumor size; type: in vivo; settings: one month
Protocol: as §1
Indium-111-Merc was prepared also by a method described previously. (Thakur et al, J Nucl Med 26: 518-523, 1985). Briefly, to one ml 0.067 M phosphate buffer pH 7.4, a required quantity of Indium-111-chloride was added followed by 50 μg Merc in 50 μl 0.067 M phosphate buffer pH 7.4. The reaction mixture was vortexed, and resultant Indium-111-Merc was extracted in chloroform or methylene chloride. This was evaporated to dryness, and the complex was taken up in 50 μl ethanol and 150 μl 0.9% NaCl. A known amount of radioactivity in 50 μl was then injected directly into the tumor in each mouse.
For treatment with Indium-111-Merc, human breast cancer cells (5×10^6) T47D were implanted similarly. These were also allowed to grow to up to 0.5 cm in diameter.

[8] = cited from earlier work

| Molecule | body weight change ([1]; DU145 tumor-bearing mice, on the average) | radioactivity retained in the tumor (gamma camera image) ([2]; 22 days after intratumoral Indium-111-oxine injection) | labeling of cells in the presence of plasma [3] | tumor growth in treated mice (tumor size versus time, FIG. 4) ([4]; DU145 tumor-bearing nude mice) | average tumor growth during the treatment period ([4]; DU145 tumors, two intratumoral doses two weeks apart, untreated mice 200%) [%] | tumor growth in treated animal [5] | kidney uptake at sacrifice ([6]; DU145 tumor-bearing mice) [%] | liver uptake at sacrifice ([6]; DU145 tumor-bearing mice) [%] | injected activity retained in tumor at sacrifice ([6]; DU145 tumor-bearing mice, corrected for decay) [%] | body weight change ([1]; T47D tumor-bearing mice) | radioactivity still in the tumor (gamma camera image) ([2]; 10 days after intratumoral Indium-111-Merc injection) | radioactivity retained in animal body ([2]; ten days after the injection of Indium-111-Merc) | tumor growth in treated mice (tumor size versus time, FIG. 5) ([7]; T47D tumor-bearing nude mice) | average tumor growth in the treated mice ([7]; T47D tumors, two intratumoral doses two weeks apart, untreated controls 477%) [%] | stability in plasma [8] | injected activity retained in tumor at sacrifice ([6]; T47D tumor-bearing mice) [%] | kidney activity at sacrifice ([6]; T47D tumor-bearing mice) [%] | liver activity at sacrifice ([6]; T47D tumor-bearing mice) [%] |
| --- | --- | --- | --- | --- | --- | --- | --- | --- | --- | --- | --- | --- | --- | --- | --- | --- | --- | --- |
| [111In+3].[O-]c1cccc2cccnc12.[O-]c1cccc2cccnc12.[O-]c1cccc2cccnc12 [Indium-111-oxine, Indium-111-oxine (8-hydroxyquinoline)] | none of the treated or untreated mice either gained or lost body weight | a major proportion; also recorded: nearly all | not capable of binding cells in plasma; also recorded: cannot efficiently label cells | arrested | 117 | has not grown | 7.5 | 5.4 | 86.5 | – | – | – | – | – | – | – | – | – |
| Indium-111-Merc (2-Mercaptopyridine-N-oxide) | – | – | can label cells in the presence of plasma | – | – | – | – | – | – | gained some body weight | a major proportion | all | arrested | 172 | does not break down in plasma | 92.97 | 4.03 | 1.02 |
